Test results: patent US20020009747A1, “METHODS AND REAGENTS FOR IDENTIFYING MODULATORS OF NEURONAL APOPTOSIS” (priority 1997, published 2002)
“Also recorded” adds a separate entry of the source.

Tested on: primary sympathetic neurons
Test: NGF withdrawal assay, neuronal survival quantitated by MTT assay
Format: cell-based
Settings: protein expressed by recombinant adenovirus infection, NGF withdrawn
Method: One experimental system which can be used to assay for changes in death marker proteins in neurons undergoing cell death employs primary sympathetic neurons that are cultured for 3-5 days in nerve growth factor (NGF) to maintain their survival, after which time NGF is withdrawn to induce apoptosis. Death of the neuron occurs within 48 hours and requires transcription. […] Prior to the commitment point, the neurons can be rescued by re-supplying them with NGF; subsequent to the commitment point, the neurons can no longer be rescued, and are committed to die. As a part of the invention, we have shown that death due to NGF withdrawal in this assay is an apoptotic event (see Example V, below).
To confirm that primary sympathetic neurons die by apoptotic cell death, neurons were infected with a recombinant adenovirus expressing E1B55K, an adenoviral protein known to inhibit apoptosis by inhibiting p53. After adenovirus infection, NGF was withdrawn, and neuronal survival was then quantitated by MTT assay, as in Slack et al. supra.

Row | Substance | neuronal survival / death after NGF withdrawal
1 | Bcl2: a protein that can inhibit apoptosis | inhibits cell death in NGF-deprived neurons
2 | E1B55K: adenoviral protein known to inhibit apoptosis by inhibiting p53, expressed from a recombinant adenovirus | inhibits death in NGF-deprived neurons; also recorded: rescue of sympathetic neuron apoptosis
